The source of these data is patent US10058100B2, “Hydrogen sulfide releasing compounds and their use” (THE UNIVERSITY OF EXETER, priority 2011, dated 2018).

In one experiment the test system is inflammasome. In words: Inhibition of inflammasome activation (LPS/ATP), IL-1β ELISA in THP-1 cells. The class given is cell-based, human. To be noted: AP39 with LPS 1 μg/ml 24 hrs, then ATP 5 mM 24 hrs, FIG. 35. The procedure: Human THP-1 cells were cultured in RPMI medium and incubated with AP39 and bacterial endotoxin (lipopolysaccharide; LPS) (1 μg/ml) for 24 hrs, followed by ATP (5 mM) for an additional 24 hrs. After this time cell culture media was collected and inflammasome activation determined by measuring […] levels in the culture media by commercial ELISA (Human IL-1 beta ELISA Ready-SET-Go, eBioscience) (FIG. 35). Data are mean+/−standard deviation (n=3).
A general note: In an ELISA, binding on a coated surface is turned into a signal by an enzyme label.

Experiment [1] relates to adrenaline-precontracted rat aorta. In words: Relaxation of adrenaline precontracted rat aortic rings. Conditions: AP39 1-5 μM, 200 nmol/l adrenaline, FIG. 23 A-C. The procedure:
The rings of thoracic aorta (approx. 3-4-mm diameter) or mesenteric artery were prepared from male Wistar rats and were mounted for recording of isometric tension changes in pneumoxid-oxygenated (95% O2:CO2, 37° C.) Krebs-bicarbonate solution as described in Ling et al., 2008 Circulation 117 […]. The aortic ring was pre-contracted with 200 nmol/l adrenaline and the effect of AP39 was evaluated (FIG. 23).

Experiment [2] deals with HMEC. In words: Mitochondrial membrane potential (ΔΨm), tetramethylrhodamine methyl ester. The class given is cell-based, human. Conditions: H2O2, SIN-1 or 4-HNE; AP39 100 nM, FIG. 13. On the procedure:
HMEC were incubated with H2S donor compounds for 5 hrs followed by the addition of oxidants SIN-1 (500 μM), H2O2 (50 μM) or […] (10 μM) for 24 hrs. After this time the mitochondria-specific potentiometric dye tetramethylrhodamine methyl ester (200 nM) was added and fluorescence was determined using a Gemini M2e microplate reader (excitation wavelength 548 nm, emission wavelength 573 nm). The method was performed in accordance with the method described by M. Whiteman et al (FASEB J, 2004, 18, 1395-1397).

The test system of experiment [3] is HMEC. In words: Mitochondrial oxidative stress measurements (MitoSox Red). The class given is cell-based, human. On the procedure:
HMEC were incubated with H2S donor compounds for 5 hrs then the oxidants H2O2, SIN-1 or […] added for 2 hrs. We used a mitochondria-selective oxidant probe MitoSox Red (final concentration, 5 μM) to detect mitochondria-derived oxidant species by fluorescence using a Gemini M2e microplate reader (excitation wavelength 510 nm, emission wavelength, 580 nm). The method was performed in accordance with the method described by M. Whiteman et al (Meths. Mol. Biol., 2008, 476, 29-50) and R. A. Quintanilla et al (J Biol Chem., 2008, 284, 18754-18766).

Experiment [4] concerns HMEC. Description: Cell death induced by inhibitors of endogenous H2S synthesis (AOAA, PAG). The class given is cell-based, human. Conditions: AP39 100 nM, FIGS. 5-7, p<0.001. An excerpt: In the data shown in FIGS. 5 to 7, ###=p<0.001 compared to the control; ***=p<0.001 compared to inhibitors.

As for `O=C(CCCCCCCCC[P+](c1ccccc1)(c1ccccc1)c1ccccc1)Oc1ccc(-c2cc(=S)ss2)cc1.[Br-]` [AP39], the “IL-1β levels in the cell culture media (inflammasome activation)” value in the experiment on inflammasome is listed as “reduced”. For the same compound, the “vasodilatory effect on adrenaline-precontracted rat aorta” value in experiment [1] is “vasodilatory effects”. Moreover, the “oxidant-induced mitochondrial membrane potential (Δψm) collapse” value in the experiment with HMEC [2] was “inhibition”. In addition, the “mitochondrial superoxide formation induced by 4-HNE (MitoSOX red)” value in the experiment with HMEC [3] (4-HNE 10 μM, AP39 0.1 μM, FIGS. 16 and 18) is reported as “significantly reduced”. The “lower concentration than GYY4137 for reduction of mitochondrial superoxide” value with HMEC [3] (AP39 0.1 μM versus GYY4137 100 μM) is on record as 1,000 fold. Moreover, the “mitochondrial superoxide formation induced by H2O2 (MitoSOX red)” value with HMEC [3] (H2O2 50 μM, AP39 0.1 μM, FIG. 17) is recorded as “reduced”. Besides, the “AOAA, PAG and AOAA/PAG induced cell death” value with HMEC [4] is reported as “significantly inhibited”.
